Laboratory results as given in patent publication US5705649A, “Protein staining compositions and methods” (Promega Corporation, priority 1995, dated 1998).

How the values were obtained:
[1] = tested on: Promega Mid Range Molecular Weight Standards; assay: Detection of fractionated protein in SDS-PAGE gels using dansyl derivatives made in acetone; conditions: for lowest protein per band visible: 2% (v/v) eluate in 10% methanol
Description: Several 15-well, SDS-PAGE minigels were poured as described in Example 27 and loaded with Promega Mid Range Molecular Weight Standards diluted as described in Example 27 to provide samples containing 1000, 300, 100, 50, 25, 12.5, and 6.25ng of each protein per band in separate lanes of the gel. The samples were fractionated by application of 20 mA per gel until the tracking dye reached the bottom of the gel. All the gels were placed in 10% trichloroacetic acid for 5 min and then incubated for 10 min in 10% (v/v) methanol. The gels were then incubated in a 10% methanol solution containing 2% (v/v) of the derivative eluates (dissolved in 50 ml ethanol) described in Example 28. The gels were transferred to a transilluminator and both visualized and photographed after two hours of staining. The following observations were made. Only the lanes containing 1000 and 300ng of protein per band were visible in the gel incubated with the n-butyl dansyl derivative. The lanes containing the 1000, 300, 100, 50, 25ng per band were visible in the gel incubated with the n-hexyl derivative as were some of the bands in the 12.5 ng per band lane.
After overnight incubation in the stain solutions, the gels were re-observed and rephotographed.
The gels were then placed in 1% acetic acid to remove any unbound stain and rephotographed after three hours of incubation in this solution at room temperature.

[2] = Spectral analyses of Coomassie Blue R and Promega Green 1, 2, 3; type: physicochemical; conditions: 1:1 methanol:water, 700 to 340 nm
Description: The three solutions of Promega Green 1, 2, and 3, from examples 1, 2 and 3 respectively, were diluted approximately 500 fold into a 1:1 solution of methanol:water. The spectra of the resulting solutions and of a 12 μg/ml solution of Coomassie Blue R (in 1:1 methanol:water) were recorded from 700 to 340 nm versus 1:1 methanol:water. […] All of the derivatives gave essentially identical spectra; however, the maximal absorbance of the diluted Promega Green i was about twice that seen for the other derivatives. The derivatives had two peak absorptions in the region of the spectrum scanned, a major peak at around 630 nm and a second peak at around 440 nm. The following absorbances were recorded at the peaks near 630 nm for the three Promega Green dye solutions (diluted 1:500 in 1:1 methanol:water): […]

[3] = tested on: Promega Mid Range Molecular Weight Standards; assay: Post-electrophoretic detection of protein with purified dansyl derivatives
Description: Samples of the eluates from purification of the derivatives were diluted 20-fold with ethanol and the absorption of the resulting solutions from 400 to 220 nm was measured. The absorption of the solutions at 328 nm was used as an indication of the concentration of the derivative in the staining studies in Example 27.
Several SDS-PAGE minigels were made as described in Experiments with Gene Fusions, Silhavy, Berman, Enquist, supra, using the SDS concentrations described by the authors. Samples of Promega Mid Range Molecular Weight Standards were diluted into the loading solution described in the reference above to produce solutions containing 200, 100, 50, 25, and 12.5 ng of each protein species in 10 μl of solution. These solutions were loaded onto the gels and the samples were fractionated in the gels by application of 10 mA per gel until the tracking dye for the samples reached the bottom of the gel. The gels were then rinsed 1 min in distilled water, 15 min in 10% trichloracetic acid (w/v), and then for 15 min in 10% methanol (v/v). The gel segments, approximately 5×6 cm containing the fractionated standard, were then transferred to a 2% ethanol solution (50 ml) containing 0.05 OD328 -equivalent of each of the dansyl derivatives (see Example 26).
The gel segments were returned to their respective staining solutions and were incubated overnight. The following morning, all of the gel segments were again visualized on the transilluminator and photographed as described above. […] In general, relatively equivalent staining of bands was obtained as determined by the strength of the fluorescent signal observed for the various fractionated species.

[4] = tested on: Promega Mid Range Molecular Weight standard; assay: Post-electrophoretic staining with fluorescein isothiocyanate derivatives; conditions: for lowest protein per band stained: after overnight in 10% methanol; for lowest protein per band with visible bands / standards detected: 1:500 in 10% methanol, 1 hour, destained 30 min
Description: Six 12% gels were made as described in Example 27 and were loaded with diluted Promega Mid Range Molecular Weight standard to produce lanes containing, per band, 1000, 500, 200, 100, 75, 50, 25 and 10 ng of protein. The gel was run as described in Example 27 and then the gels were incubated 15 min in 50% methanol. The gels were then transferred to individual 50 ml staining solutions, which were stock derivatized dye solutions of Example 36 diluted 1:500 with 10% methanol. After one hour, these solutions were removed and destaining with 50 ml of 10% methanol was performed. After an additional 30 min. the gels were visualized on a transilluminator and photographed. Protein bands were visible for the gels stained with amino fluorescein and p-amino benzoic acid fluorescein derivatives, however the bands were seen only in the lanes containing 1000, 500, and 200 ng of protein per band. […] At this point, the gel stained with the ethyl p-amino benzoyl derivative allowed detection of all of the proteins in the lanes containing as little as 75 ng of protein per band.
The gels were then placed in 50 ml of 10% methanol and allowed to incubate overnight at room temperature. After overnight incubation, the gels were visualized on a transilluminator and photographed. […] The gel stained with the amino derivative (reaction 5) had faded to the point where protein species were only detected in the 1000 and 500 ng protein per band lanes. However, in these lanes, only particular protein species were stained, as described above.

For `CCOC(=O)c1ccc(NS(=O)(=O)c2cccc3c(N(C)C)cccc23)cc1`, the “lowest protein per band visible” value ([1]; two hours of staining) was 25 ng.

For `CCOc1ccc(Nc2ccc(C(=C3C=CC(=[N+](CC)Cc4cccc(S(=O)(=O)[O-])c4)C=C3)c3ccc(N(CC)Cc4cccc(S(=O)(=O)O)c4)cc3)cc2)cc1` [Coomassie Blue R, reference compound], the “maximal absorbance wavelength (major peak)” value [2] was “around 590 nm”.

For `CN(C)c1cccc2c(S(N)(=O)=O)cccc12` [control dansyl amine, reference compound], the “visibility of protein bands” value ([3]; overnight staining) was “no bands were seen”.

In the case of `CCCCCCCCCCNS(=O)(=O)c1cccc2c(N(C)C)cccc12` [decyl derivative], the “lowest protein per band visible” value ([1]; two hours of staining) is reported as 25 ng, the “protein per band at which most of the protein species were visible” value ([1]; after 1% acetic acid, three hours) is reported as 6.25 ng and the “protein per band at which at least some of the bands could be visualized” value ([1]; overnight staining) is reported as 12.5 ng.

For `O=C(O)c1cc(NC(=S)Nc2ccc(NC(=S)Nc3ccc(-c4c5ccc(=O)cc-5oc5cc(O)ccc45)c(C(=O)O)c3)cc2)ccc1-c1c2ccc(=O)cc-2oc2cc(O)ccc12` [difluorescein phenylenediamine], the “lowest protein per band stained” value [4] was 200 ng.

With `CCOC(=O)c1ccc(NC(=S)Nc2ccc(-c3c4ccc(=O)cc-4oc4cc(O)ccc34)c(C(=O)O)c2)cc1` [ethyl p-amino benzoic acid fluorescein] the “lowest protein per band with visible bands” value [4] was 75 ng and the “lowest protein per band stained” value [4] was 200 ng.

In the case of `CCCCNS(=O)(=O)c1cccc2c(N(C)C)cccc12` [n-butyl dansyl derivative], the “lowest protein per band visible” value ([1]; two hours of staining) is reported as 300 ng.

With `CCCCCCNS(=O)(=O)c1cccc2c(N(C)C)cccc12` [n-hexyl derivative] the “lowest protein per band visible” value ([1]; two hours of staining) was 25 ng and the “protein per band at which some of the bands were visible” value ([1]; two hours of staining) was 12.5 ng.

In the case of `CCCCCCCCNS(=O)(=O)c1cccc2c(N(C)C)cccc12` [octyl dansyl derivative], the “staining result relative to n-hexyl derivative” value ([1]; two hours of staining) is reported as “Essentially equivalent results, but with lower fluorescence intensities”, the “staining quality compared to the amino or butyl derivatives” value [3] is reported as “much better stains compared to the amino or butyl derivatives” and the “visibility of protein bands” value ([3]; 15 min staining, 0.05 OD328-equivalent in 2% ethanol, 200-12.5 ng per band) is reported as “easily visualized in the photograph of the gel”. The “change in staining of bovine serum albumin and ovalbumin” value ([3]; overnight staining) was “somewhat fainter after the overnight incubation” and the “visibility of protein bands” value ([3]; overnight staining) was “easily visible”.

For `O=C(O)c1ccc(NC(=S)Nc2ccc(-c3c4ccc(=O)cc-4oc4cc(O)ccc34)c(C(=O)O)c2)cc1` [p-amino benzoic acid fluorescein], the “lowest protein per band with visible bands” value [4] was 200 ng, the standards detected [4] was 97, 55, 40 and 31 kDa and the “lowest protein per band stained” value [4] was 200 ng.

For `NC(=S)Nc1ccc(-c2c3ccc(=O)cc-3oc3cc(O)ccc23)c(C(=O)O)c1` [reference compound], the “lowest protein per band with visible bands” value [4] was 200 ng, the standards detected [4] was 97, 66, 55 and 40 kDa and the “lowest protein per band stained” value [4] was 500 ng.
